Data from PubChem BioAssay AID1963446 (Molecular Pharmacology Branch, DTP, NCI, 2024).
pIC50: −log10 of the molar value.

System: 993429-296-R-J1-PDC complex spheroid growth, percent test/control
Experiment: Anticancer human tumor 993429-296-R-J1-PDC patient-derived uterine sarcoma cell line growth inhibition [Asc]
Conditions: for pIC50: curve of first compound; for viability, T/C: stronger effect = lower value
Summary of the method: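 Tumor cells were grown as complex spheroids with human endothelial cells (HUVEC) and human mesenchymal stem cells as stroma. Agents were tested alone and in combination, in half-log steps down from the clinical Cmax, or from 10 microM where Cmax was unknown.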

[1] = second compound 0.01 µM, first compound 0.00949 µM
[2] = second compound 0.01 µM, first compound 0.03 µM
[3] = second compound 0.01 µM, first compound 0.0949 µM
[4] = second compound 0.01 µM, first compound 0.3 µM
[5] = second compound 0.01 µM, first compound 0.949 µM
[6] = second compound 0.01 µM, first compound 3 µM
[7] = second compound 0.0316 µM, first compound 0.00949 µM
[8] = second compound 0.0316 µM, first compound 0.03 µM
[9] = second compound 0.0316 µM, first compound 0.0949 µM
[10] = second compound 0.0316 µM, first compound 0.3 µM
[11] = second compound 0.0316 µM, first compound 0.949 µM
[12] = second compound 0.0316 µM, first compound 3 µM
[13] = second compound 0.1 µM, first compound 0.00949 µM
[14] = second compound 0.1 µM, first compound 0.03 µM
[15] = second compound 0.1 µM, first compound 0.0949 µM
[16] = second compound 0.1 µM, first compound 0.3 µM
[17] = second compound 0.1 µM, first compound 0.949 µM
[18] = second compound 0.1 µM, first compound 3 µM
[19] = second compound 0.316 µM, first compound 0.00949 µM
[20] = second compound 0.316 µM, first compound 0.03 µM
[21] = second compound 0.316 µM, first compound 0.0949 µM
[22] = second compound 0.316 µM, first compound 0.3 µM
[23] = second compound 0.316 µM, first compound 0.949 µM
[24] = second compound 0.316 µM, first compound 3 µM
[25] = second compound 1 µM, first compound 0.00949 µM
[26] = second compound 1 µM, first compound 0.03 µM
[27] = second compound 1 µM, first compound 0.0949 µM
[28] = second compound 1 µM, first compound 0.3 µM
[29] = second compound 1 µM, first compound 0.949 µM
[30] = second compound 1 µM, first compound 3 µM
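Note: spheroids exposed to compounds for seven days.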

Row | SMILES | pIC50 (second compound 0.01 µM) | pIC50 (second compound 0.0316 µM) | pIC50 (second compound 0.1 µM) | pIC50 (second compound 0.316 µM) | pIC50 (second compound 1 µM) | viability, T/C [1] | viability, T/C [2] | viability, T/C [3] | viability, T/C [4] | viability, T/C [5] | viability, T/C [6] | viability, T/C [7] | viability, T/C [8] | viability, T/C [9] | viability, T/C [10] | viability, T/C [11] | viability, T/C [12] | viability, T/C [13] | viability, T/C [14] | viability, T/C [15] | further results
1 | CCN1C(C(=O)NC23CCC(C(=O)O)(CC2)CC3)C(c2cccc(Cl)c2F)C2(C(=O)Nc3cc(Cl)ccc32)C12CCCCC2 (stereo not given) + CNC(C)C(=O)NC1CN(S(=O)(=O)c2cccc(S(=O)(=O)N3CCC4CCC(C(=O)NC(c5ccccc5)c5ccccc5)N4C(=O)C(NC(=O)C(C)NC)C3)c2)CCC2CCC(C(=O)NC(c3ccccc3)c3ccccc3)N2C1=O | < 5.52 | < 5.52 | < 5.52 | > 8.02 | < 5.52 | 66.7% | 61.1% | 64% | 66.5% | 74.5% | 60% | 66.2% | 61.2% | 55% | 54.5% | 68.5% | 61.1% | 58.9% | 50% | 56% | viability, T/C [16]: 48.4%; viability, T/C [17]: 60.1%; viability, T/C [18]: 64%; viability, T/C [19]: 48.9%; viability, T/C [20]: 55.7%; viability, T/C [21]: 53%; viability, T/C [22]: 60.8%; viability, T/C [23]: 68.7%; viability, T/C [24]: 58.1%; viability, T/C [25]: 55.3%; viability, T/C [26]: 59.9%; viability, T/C [27]: 45.4%; viability, T/C [28]: 40.9%; viability, T/C [29]: 51.8%; viability, T/C [30]: 63.1%
2 | Cc1nc(N2CCC3(CC2)COC(C)C3N)c(CO)nc1Sc1ccnc(N)c1Cl (stereo not given) + CNC(C)C(=O)NC1CN(S(=O)(=O)c2cccc(S(=O)(=O)N3CCC4CCC(C(=O)NC(c5ccccc5)c5ccccc5)N4C(=O)C(NC(=O)C(C)NC)C3)c2)CCC2CCC(C(=O)NC(c3ccccc3)c3ccccc3)N2C1=O | 6.99 | 7.07 | 7.25 | > 8.02 | 6.97 | 68.6% | 61.1% | 49.5% | 42.5% | 37% | 32.2% | 67.5% | 57.5% | 50.9% | 39.4% | 36.7% | 30.9% | 60.1% | 54.9% | 45.2% | viability, T/C [16]: 39.8%; viability, T/C [17]: 29%; viability, T/C [18]: 28.3%; viability, T/C [19]: 43.6%; viability, T/C [20]: 48.9%; viability, T/C [21]: 51.9%; viability, T/C [22]: 41.3%; viability, T/C [23]: 32.4%; viability, T/C [24]: 29.2%; viability, T/C [25]: 53.1%; viability, T/C [26]: 48.1%; viability, T/C [27]: 52.2%; viability, T/C [28]: 40%; viability, T/C [29]: 20.5%; viability, T/C [30]: 26.7%
